From ChEMBL document CHEMBL4680126, “Indazolyl-substituted piperidin-4-yl-aminopyrimidines as HIV-1 NNRTIs: Design, synthesis and biological activities” (Eur J Med Chem, 2020)

Assays:
[1] = system: Human immunodeficiency virus 1; assay: Antiviral activity against HIV-1 RES056 mutant strain infected in human MT4 cells assessed as reduction in virus-induced cytopathogenicity by MTT assay; format: functional, organism-based; settings: Human immunodeficiency virus 1, MT4
[2] = system: Human immunodeficiency virus 1; assay: Antiviral activity against HIV-1 K103N mutant strain infected in human MT4 cells assessed as reduction in virus-induced cytopathogenicity by MTT assay; format: functional, organism-based; settings: Human immunodeficiency virus 1, MT4
[3] = system: Human immunodeficiency virus 1; assay: Antiviral activity against HIV-1 E138K mutant strain infected in human MT4 cells assessed as reduction in virus-induced cytopathogenicity by MTT assay; format: functional, organism-based; settings: Human immunodeficiency virus 1, MT4
[4] = system: Human immunodeficiency virus 1; assay: Antiviral activity against HIV-1 Y181C mutant strain infected in human MT4 cells assessed as reduction in virus-induced cytopathogenicity by MTT assay; format: functional, organism-based; settings: Human immunodeficiency virus 1, MT4
[5] = Cytotoxicity against human MT4 cells assessed as inhibition of cell viability by measuring reduction in absorbance at OD540 by MTT assay; format: cell-based
[6] = system: Human immunodeficiency virus 2; assay: Antiviral activity against HIV-2 ROD strain infected in human MT4 cells assessed as reduction in virus-induced cytopathogenicity by MTT assay; settings: Human immunodeficiency virus 2, ISOLATE ROD
[7] = system: Human immunodeficiency virus 1; assay: Antiviral activity against wild type HIV-1 strain 3B infected in human MT4 cells assessed as reduction in virus-induced cytopathogenicity by MTT assay; format: functional, organism-based; settings: Human immunodeficiency virus 1, 3B
[8] = Selectivity index, ratio of CC50 for cytotoxicity against human MT4 cells reduction in cell viability by MTT assay to EC50 for antiviral activity against wild type HIV-1 strain IIIB infected in human MT4 cells assessed as reduction in virus-induced cytopathogenicity by MTT assay; format: toxicity, cell-based; settings: read-out: Selectivity Index

Question: For `Cc1cc(C#N)cc(C)c1Oc1ccnc(NC2CCN(Cc3n[nH]c4ccccc34)CC2)n1`, which EC50 [1] is on record?
Answer: 8.7 µM

Question: And the EC50 [2]?
Answer: 0.077 µM

Question: What about the EC50 [3] of the same compound?
Answer: 0.057 µM

Question: And the EC50 [4]?
Answer: 0.11 µM

Question: What about the CC50 [5] of the same compound?
Answer: 16 µM

Question: And the EC50 [6]?
Answer: > 16 µM

Question: What about the EC50 [7] of the same compound?
Answer: 0.0064 µM

Question: And the selectivity ratio [8]?
Answer: 2500

Question: Which results are given for `N#Cc1cccc(Oc2ccnc(NC3CCN(Cc4n[nH]c5ccccc45)CC3)n2)c1`?
Answer: EC50 [1]: > 32 µM; EC50 [2]: > 32 µM; EC50 [3]: > 32 µM; EC50 [4]: > 32 µM; CC50 [5]: 32 µM; EC50 [6]: > 32 µM; EC50 [7]: 1.5 µM; selectivity ratio [8]: 21

Question: For `Clc1ccccc1Oc1ccnc(NC2CCN(Cc3n[nH]c4ccccc34)CC2)n1`, which EC50 [1] is on record?
Answer: > 5.4 µM

Question: What about the EC50 [2] of the same compound?
Answer: > 5.4 µM

Question: And the EC50 [3]?
Answer: 0.8 µM

Question: And the EC50 [4]?
Answer: 1.6 µM

Question: What about the CC50 [5] of the same compound?
Answer: 5.4 µM

Question: And the EC50 [6]?
Answer: > 5.4 µM

Question: What about the EC50 [7] of the same compound?
Answer: 0.037 µM

Question: And the selectivity ratio [8]?
Answer: 146

Question: Which results are given for `Clc1cccc(Oc2ccnc(NC3CCN(Cc4n[nH]c5ccccc45)CC3)n2)c1`?
Answer: EC50 [1]: > 26 µM; EC50 [2]: 9.8 µM; EC50 [3]: 4.7 µM; EC50 [4]: 9 µM; CC50 [5]: 26 µM; EC50 [6]: > 26 µM; EC50 [7]: 0.28 µM; selectivity ratio [8]: 93

Question: For `Brc1ccc(Oc2ccnc(NC3CCN(Cc4n[nH]c5ccccc45)CC3)n2)cc1`, which EC50 [1] is on record?
Answer: > 24 µM

Question: And the EC50 [2]?
Answer: 5.7 µM

Question: What about the EC50 [3] of the same compound?
Answer: 2 µM

Question: And the EC50 [4]?
Answer: 7.5 µM

Question: What about the CC50 [5] of the same compound?
Answer: 24 µM

Question: And the EC50 [6]?
Answer: > 24 µM

Question: What about the EC50 [7] of the same compound?
Answer: 0.21 µM

Question: And the selectivity ratio [8]?
Answer: 114

Question: With `Cc1ccc(Oc2ccnc(NC3CCN(Cc4n[nH]c5ccccc45)CC3)n2)cc1` as the compound, how does the EC50 [1] read?
Answer: > 32 µM

Question: And the EC50 [2]?
Answer: 3.8 µM

Question: What about the EC50 [3] of the same compound?
Answer: 0.77 µM

Question: And the EC50 [4]?
Answer: 4.3 µM

Question: What about the CC50 [5] of the same compound?
Answer: 32 µM

Question: What about the EC50 [6] of the same compound?
Answer: > 32 µM

Question: What about the EC50 [7] of the same compound?
Answer: 0.14 µM

Question: And the selectivity ratio [8]?
Answer: 229

Question: For `Cc1cccc(Oc2ccnc(NC3CCN(Cc4n[nH]c5ccccc45)CC3)n2)c1`, which EC50 [1] is on record?
Answer: > 32 µM

Question: What about the EC50 [2] of the same compound?
Answer: 9.6 µM

Question: What about the EC50 [3] of the same compound?
Answer: 4 µM

Question: And the EC50 [4]?
Answer: > 11 µM

Question: What about the CC50 [5] of the same compound?
Answer: 32 µM

Question: And the EC50 [6]?
Answer: > 32 µM

Question: What about the EC50 [7] of the same compound?
Answer: 0.39 µM

Question: And the selectivity ratio [8]?
Answer: 82

Question: With `N#Cc1cc(Cl)cc(Oc2ccnc(NC3CCN(Cc4n[nH]c5ccccc45)CC3)n2)c1` as the compound, how does the EC50 [1] read?
Answer: > 27 µM

Question: What about the EC50 [2] of the same compound?
Answer: > 27 µM

Question: And the EC50 [3]?
Answer: > 27 µM

Question: And the EC50 [4]?
Answer: > 27 µM

Question: What about the CC50 [5] of the same compound?
Answer: 27 µM

Question: What about the EC50 [6] of the same compound?
Answer: > 27 µM

Question: And the EC50 [7]?
Answer: 2.3 µM

Question: What about the selectivity ratio [8] of the same compound?
Answer: 12

Question: For `FC(F)(F)c1ccccc1Oc1ccnc(NC2CCN(Cc3n[nH]c4ccccc34)CC2)n1`, which EC50 [1] is on record?
Answer: > 15 µM

Question: What about the EC50 [2] of the same compound?
Answer: 8.3 µM

Question: And the EC50 [3]?
Answer: 4.4 µM

Question: And the EC50 [4]?
Answer: 6.8 µM

Question: And the CC50 [5]?
Answer: 15 µM

Question: What about the EC50 [6] of the same compound?
Answer: > 15 µM

Question: What about the EC50 [7] of the same compound?
Answer: 0.3 µM

Question: What about the selectivity ratio [8] of the same compound?
Answer: 50

Question: Which results are given for `Clc1ccc(Oc2ccnc(NC3CCN(Cc4n[nH]c5ccccc45)CC3)n2)cc1`?
Answer: EC50 [1]: > 30 µM; EC50 [2]: 4 µM; EC50 [3]: 2.3 µM; EC50 [4]: 5.6 µM; CC50 [5]: 30 µM; EC50 [6]: > 30 µM; EC50 [7]: 0.23 µM; selectivity ratio [8]: 130

Question: What does the source list for `Cc1cccc(C)c1Oc1ccnc(NC2CCN(Cc3n[nH]c4ccccc34)CC2)n1`?
Answer: EC50 [1]: > 18 µM; EC50 [2]: 0.22 µM; EC50 [3]: 0.084 µM; EC50 [4]: 0.4 µM; CC50 [5]: 18 µM; EC50 [6]: > 18 µM; EC50 [7]: 0.0086 µM; selectivity ratio [8]: 2090
